Experimental data as given in PMC10227015, “From a drug repositioning to a structure-based drug design approach to tackle acute lymphoblastic leukemia” (Nature Communications, 2023).
Read-outs that look alike come from different tables or passages of the source.

Columns and labels:
[1] = test system: dCK-C3S-S74E; assay: Enzymatic assay (PK/LDH coupled), dC phosphorylation by dCK in the presence of UTP; format: biochemical, human; details: for ENZYMATIC ASSAY (Activation/Inhibition): presence of UTP; for effect on dCK enzymatic activity, activation versus inhibition: UTP 1 mM, dC 200 µM
dCK-C3S-S74E, sequence (P27707 whole entry S74E, form open): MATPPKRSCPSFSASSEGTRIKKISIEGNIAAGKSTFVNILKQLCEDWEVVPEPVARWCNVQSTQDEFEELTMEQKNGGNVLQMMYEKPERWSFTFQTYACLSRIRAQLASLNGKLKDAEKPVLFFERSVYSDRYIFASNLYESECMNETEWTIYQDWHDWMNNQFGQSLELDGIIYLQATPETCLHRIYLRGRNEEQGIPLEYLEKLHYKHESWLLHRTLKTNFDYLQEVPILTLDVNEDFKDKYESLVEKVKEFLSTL
In short: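 Activation versus inhibition was judged with 1 mM UTP, 200 µM dC and 2 μM dCK-C3S-S74E, using pyruvate kinase/lactate dehydrogenase coupling that tracks NADH fluorescence decrease at 460 nm. Buffer was HEPES pH 7.5 with MgCl2, KCl and DTT. Rates came from linear slopes, expressed relative to compound-free control.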

[2] = test system: CCRF-CEM cell line; assay: dCK cellular assay: CCRF-CEM proliferation in the presence of dT and dC; format: cell-based, human; details: for activity at 0.078 µM: 78 nM; for activity at 0.156 µM: 156 nM; for activity at 0.312 µM: 312 nM; for activity at 0.625 µM: 625 nM; for activity at 1.25 µM: 1250 nM; for activity at 2.5 µM: 2500 nM; for activity at 5 µM: 5000 nM; for activity at 20 µM: 20000 nM; for activity at 40 µM: 40000 nM
In short: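 Two conditions in T-ALL CCRF-CEM cells: compound only, and compound with thymidine blocking de novo synthesis and deoxycytidine rescuing via dCK. Metabolic dye fluorescence (560/590 nm) gives % proliferation vs DMSO; IC50s, mean ± SD of at least three triplicate runs.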

[3] = test system: dCK-C3S-S74E; assay: Thermal shift assay (TSA); details: for ΔTm, dCK thermal stabilization (TSA): 5 μM protein, 50 μM compound; for ΔTm (º) (TSA): Figure 2a, mean; for THERMAL SHIFT ASSAY +Tm (°): mean ± SD
Source text: BL21 pRIL Escherichia coli cells were transformed with dCK-plasmids (dCK-C4S-S74E (for crystallization assays) and dCK-C3S-S74E (for TSA, enzymatic and ITC assays)). […] Protein dCK-C3S-S74E used for other assays contained only three mutated cysteines. The S74E mutation mimics the phosphorylated state of this serine, which favors the open conformation of the enzyme, making it competent for nucleoside binding[45] to evaluate the binding affinity with compounds.
For binding assays (TSA, ITC and crystallography) cells were re-suspended in 50 mM TRIS, pH 8, 500 mM NaCl, 30 mM imidazole and 10% glycerol buffer and one EDTA free anti-protease tablet was added (Roche). After sonication and centrifugation (30,000 × g), the supernatant was loaded on a 5 ml HisTrap FF column (GE healthcare) pre-equilibrated with resuspension buffer. Protein was then eluted by resuspension buffer containing 500 mM imidazole. Protein eluted fractions were mixed and concentrated. Protein was further purified by size exclusion chromatography (superdex 200 16/600, GE healthcare) in 20 mM HEPES, pH 7.5, and 200 mM NaCl before concentration to 30 mg/ml and storage at −80 °C.
Thermal shift assay (TSA) experiments were performed in 384-well PCR white plates in the assay buffer containing 20 mM HEPES, pH 7.5 and 200 mM NaCl. […] Plates were centrifuged at 200 × g for 2 min at 4 °C. […] Raw fluorescence data were treated, and the melting temperatures (Tm) were calculated using CFX Manager 3.1 software (Bio-Rad). ΔTm represents the difference in Tm between the protein in the presence of compound and the protein alone (both at 2% DMSO). Each experiment was performed at least twice (with technical triplicates) and data are presented as the mean ± SD.

[4] = Homo sapiens, read-out: dCK CELLULAR ASSAY IC50 (nM), CCRF-CEM, 200 µM dT and 1 µM dC, read-out: dCK […] ASSAY IC50
[5] = Homo sapiens, CCRF-CEM, dT 200 µM + dC 1 µM, 72 h, read-out: IC50 cell proliferation (dCK cellular assay)
[6] = Homo sapiens, CCRF-CEM, dT 200 µM + dC 1 µM, read-out: Cell proliferation of the CCRF-CEM cell line Mean (% prolif)
[7] = Homo sapiens, CCRF-CEM, 10000 nM, dT 200 µM + dC 1 µM, read-out: Cell proliferation of the CCRF-CEM cell line Mean (% prolif)

| ENZYMATIC ASSAY (Activation/Inhibition) [1] | IC50 [2, 5] | ΔTm, dCK thermal stabilization (TSA) [3] | Thermal Shift Assay Mean (ΔTm (º)) ([3]; Figure 2b) | THERMAL SHIFT ASSAY +Tm (°) [3] | effect on dCK enzymatic activity, activation versus inhibition [1] | SMILES | IC50 [2, 4] | ΔTm (º) (TSA) [3] | activity at 0.078 µM [2, 6] | activity at 0.156 µM [2, 6] | activity at 0.312 µM [2, 6] | activity at 0.625 µM [2, 6] | activity at 1.25 µM [2, 6] | activity at 2.5 µM [2, 6] | activity at 5 µM [2, 6] | activity at 10 µM [2, 7] | activity at 20 µM [2, 6] | activity at 40 µM [2, 6] | other results |
| --- | --- | --- | --- | --- | --- | --- | --- | --- | --- | --- | --- | --- | --- | --- | --- | --- | --- | --- | --- |
| A/I |  | 17.3 °C |  | 17.3 ± 0.2 ° | shifted from activators to inhibitors | Cc1ccc(NC(=O)c2ccc(CN3CCN(C)CC3)cc2)cc1Nc1nc(-c2nc(N)cc(N)n2)cs1 [dCKi2, N-(3-((4-(4,6-diaminopyrimidin-2-yl)thiazol-2-yl)amino)-4-methylphenyl)-4-((4-methylpiperazin-1-yl)methyl)benzamide] | 8910 ± 3340 nM |  | 95.9% | 91.9% | 100% | 95.6% | 94.5% | 86% | 58.8% | 29.6% | 14% | 6.8% | Enzymatic activity (UTP) Mean (% activity) ([1]; 0.156 µM): 93.59%; Enzymatic activity (UTP) Mean (% activity) ([1]; 0.31 µM): 84.70%; Enzymatic activity (UTP) Mean (% activity) ([1]; 0.625 µM): 90.40%; Enzymatic activity (UTP) Mean (% activity) ([1]; 1.25 µM): 99.44%; Enzymatic activity (UTP) Mean (% activity) ([1]; 2.5 µM): 135.24%; Enzymatic activity (UTP) Mean (% activity) ([1]; 5 µM): 164.65%; Enzymatic activity (UTP) Mean (% activity) ([1]; 10 µM): 178.80%; Enzymatic activity (UTP) Mean (% activity) ([1]; 20 µM): 174.40%; Enzymatic activity (UTP) Mean (% activity) ([1]; 40 µM): 165.28%; Enzymatic activity (UTP) Mean (% activity) ([1]; 80 µM): 150.42%; Enzymatic activity (UTP) Mean (% activity) ([1]; 160 µM): 147.75%; activity at 10 µM ([2]; Homo sapiens, CCRF-CEM, compound 10 µM + dT 111 µM + dC 1 µM, 72 h, read-out: Cell proliferation of the CCRF-CEM cell line Mean (% prolif)): 42.3%; IC50 ([2]; Homo sapiens, CCRF-CEM, dT 200 µM + dC 1 µM, 72 h, read-out: IC50 cell proliferation): 8900 nM; Thermal Shift Assay Mean (ΔTm (º)) ([3]; Figure 1b): 17.3 º |
| I | 341 nM | 20 °C | 20.0 º | 20.0 ± 0.6 ° | only exhibited enzymatic inhibition | CCCN(c1nc(-c2nc(N)cc(N)n2)cs1)c1cc(-c2ccc(CCN3CCN(C)CC3)cc2)ccc1C [OR0600] |  |  | 85.9% | 76.2% | 59.2% | 40.4% | 22.2% | 5.5% | 0.133% |  |  |  | activity at 0.00975 µM ([2]; Homo sapiens, CCRF-CEM, 9.75 nM, dT 200 µM + dC 1 µM, read-out: Cell proliferation of the CCRF-CEM cell line Mean (% prolif)): 104%; activity at 0.0195 µM ([2]; Homo sapiens, CCRF-CEM, 19.5 nM, dT 200 µM + dC 1 µM, read-out: Cell proliferation of the CCRF-CEM cell line Mean (% prolif)): 98.6%; activity at 0.039 µM ([2]; Homo sapiens, CCRF-CEM, 39 nM, dT 200 µM + dC 1 µM, read-out: Cell proliferation of the CCRF-CEM cell line Mean (% prolif)): 91.6% |

Further lines, the compound ahead of its results:

| SMILES | ENZYMATIC ASSAY (Activation/Inhibition) [1] | IC50 [2, 5] | ΔTm, dCK thermal stabilization (TSA) [3] | Thermal Shift Assay Mean (ΔTm (º)) ([3]; Figure 2b) | THERMAL SHIFT ASSAY +Tm (°) [3] | effect on dCK enzymatic activity, activation versus inhibition [1] | IC50 [2, 4] | ΔTm (º) (TSA) [3] | activity at 0.078 µM [2, 6] | activity at 0.156 µM [2, 6] | activity at 0.312 µM [2, 6] | activity at 0.625 µM [2, 6] | activity at 1.25 µM [2, 6] | activity at 2.5 µM [2, 6] | activity at 5 µM [2, 6] | activity at 10 µM [2, 7] | activity at 20 µM [2, 6] | activity at 40 µM [2, 6] | other results |
| --- | --- | --- | --- | --- | --- | --- | --- | --- | --- | --- | --- | --- | --- | --- | --- | --- | --- | --- | --- |
| CCCN(c1nc(-c2nc(N)cc(N)n2)cs1)c1cc(-c2ccc(S(=O)(=O)N3CCN(C)CC3)c(OC)c2)ccc1C [OR0635] | I | 15 nM | 20.4 °C | 20.7 º | 20.40 ± 0.9 ° |  | 15.4 ± 10 nM | 20.4 º |  |  |  |  |  |  |  |  |  |  | activity at 0.00017 µM ([2]; Homo sapiens, CCRF-CEM, 0.17 nM, dT 200 µM + dC 1 µM, read-out: Cell proliferation of the CCRF-CEM cell line Mean (% prolif)): 97%; activity at 0.0005 µM ([2]; Homo sapiens, CCRF-CEM, 0.5 nM, dT 200 µM + dC 1 µM, read-out: Cell proliferation of the CCRF-CEM cell line Mean (% prolif)): 85.1%; activity at 0.0015 µM ([2]; Homo sapiens, CCRF-CEM, 1.5 nM, dT 200 µM + dC 1 µM, read-out: Cell proliferation of the CCRF-CEM cell line Mean (% prolif)): 74.1%; activity at 0.0046 µM ([2]; Homo sapiens, CCRF-CEM, 4.6 nM, dT 200 µM + dC 1 µM, read-out: Cell proliferation of the CCRF-CEM cell line Mean (% prolif)): 62.3%; activity at 0.014 µM ([2]; Homo sapiens, CCRF-CEM, 14 nM, dT 200 µM + dC 1 µM, read-out: Cell proliferation of the CCRF-CEM cell line Mean (% prolif)): 48.1%; activity at 0.041 µM ([2]; Homo sapiens, CCRF-CEM, 41 nM, dT 200 µM + dC 1 µM, read-out: Cell proliferation of the CCRF-CEM cell line Mean (% prolif)): 35.9%; activity at 0.123 µM ([2]; Homo sapiens, CCRF-CEM, 123 nM, dT 200 µM + dC 1 µM, read-out: Cell proliferation of the CCRF-CEM cell line Mean (% prolif)): 24.4%; activity at 0.37 µM ([2]; Homo sapiens, CCRF-CEM, 370 nM, dT 200 µM + dC 1 µM, read-out: Cell proliferation of the CCRF-CEM cell line Mean (% prolif)): 17.8%; activity at 1.111 µM ([2]; Homo sapiens, CCRF-CEM, 1111 nM, dT 200 µM + dC 1 µM, read-out: Cell proliferation of the CCRF-CEM cell line Mean (% prolif)): 14.8%; activity at 3.333 µM ([2]; Homo sapiens, CCRF-CEM, 3333 nM, dT 200 µM + dC 1 µM, read-out: Cell proliferation of the CCRF-CEM cell line Mean (% prolif)): 10.3%; IC50 ([2]; Homo sapiens, Figure 2a, CCRF-CEM cell line, mean, read-out: IC50 (nM) (Cell Prolif)): 14 nM |
| CCCN(c1nc(-c2nc(N)cc(N)n2)cs1)c1cc(-c2ccc(S(=O)(=O)N3CCN(C)CC3)cc2C(F)(F)F)ccc1C [OR0642] | I | 2.2 nM | 22.2 °C | 22.2 º | 22.2 ± 0.9 ° | inhibitor even at concentrations in the nanomolar range |  | 22.23 º |  |  |  |  |  |  |  |  |  |  | activity at 10 pM ([2]; Homo sapiens, CCRF-CEM, 0.01 nM, dT 200 µM + dC 1 µM, read-out: Cell proliferation of the CCRF-CEM cell line Mean (% prolif)): 90.6%; activity at 30 pM ([2]; Homo sapiens, CCRF-CEM, 0.03 nM, dT 200 µM + dC 1 µM, read-out: Cell proliferation of the CCRF-CEM cell line Mean (% prolif)): 93.3%; activity at 91 pM ([2]; Homo sapiens, CCRF-CEM, 0.091 nM, dT 200 µM + dC 1 µM, read-out: Cell proliferation of the CCRF-CEM cell line Mean (% prolif)): 88.7%; activity at 0.00027 µM ([2]; Homo sapiens, CCRF-CEM, 0.27 nM, dT 200 µM + dC 1 µM, read-out: Cell proliferation of the CCRF-CEM cell line Mean (% prolif)): 87.2%; activity at 0.00082 µM ([2]; Homo sapiens, CCRF-CEM, 0.82 nM, dT 200 µM + dC 1 µM, read-out: Cell proliferation of the CCRF-CEM cell line Mean (% prolif)): 79.7%; activity at 0.0025 µM ([2]; Homo sapiens, CCRF-CEM, 2.5 nM, dT 200 µM + dC 1 µM, read-out: Cell proliferation of the CCRF-CEM cell line Mean (% prolif)): 68.2%; activity at 0.0074 µM ([2]; Homo sapiens, CCRF-CEM, 7.4 nM, dT 200 µM + dC 1 µM, read-out: Cell proliferation of the CCRF-CEM cell line Mean (% prolif)): 43.1%; activity at 0.022 µM ([2]; Homo sapiens, CCRF-CEM, 22 nM, dT 200 µM + dC 1 µM, read-out: Cell proliferation of the CCRF-CEM cell line Mean (% prolif)): 24.9%; activity at 0.067 µM ([2]; Homo sapiens, CCRF-CEM, 67 nM, dT 200 µM + dC 1 µM, read-out: Cell proliferation of the CCRF-CEM cell line Mean (% prolif)): 18%; activity at 0.2 µM ([2]; Homo sapiens, CCRF-CEM, 200 nM, dT 200 µM + dC 1 µM, read-out: Cell proliferation of the CCRF-CEM cell line Mean (% prolif)): 14.6%; increased potency in the cell proliferation assay ([2]; compared with dCKi1): more than 1000 times; potency increase ([2]; compared with masitinib): more than 1000 times; improved dCK thermal stability ([3]; compared to dCKi1): 7.9 °C; improved dCK thermal stability ([3]; compared to masitinib): 15 °C |
| Cc1ccc(-c2ccc(CCN3CCN(C)CC3)cc2)cc1Nc1nc(-c2nccc(N)n2)cs1 [OR0325] | A/I | 1680 nM | 17.8 °C | 17.8 º | 17.9 ± 0.3 ° |  |  |  | 100% | 92.4% | 88.7% | 81.5% | 61.9% | 40.5% | 11.6% | 0.0667% | -0.0333% | 0.3% |  |
| Cc1ccc(-c2ccc(CN3CCN(C)CC3)cc2)cc1Nc1nc(-c2nccc(N)n2)cs1 [OR0274] | A/I | 2100 nM | 16.7 °C | 16.7 º | 16.7 ± 0.3 ° |  |  |  | 103% | 94.8% | 95.1% | 90.1% | 75% | 55.5% | 31% | 7.8% | -0.0667% | 0.167% |  |
